Values joined by “and” are separate entries in the source; they are usually repeats but may differ in a detail not shown here. Identical values can stand only once. Inconclusive results and toxic doses are left out.

For the test, the system named is L1210 leukemia ip in BDF1 mice, survival T/C. The experiment in a line: NCI In Vivo Anticancer Drug Screen. Data for tumor model L1210 Leukemia (intraperitoneal) in B6D2F1 (BDF1) mice. To be noted: endpoint: mean survival time, higher = longer survival. An outline of the steps:
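Each compound was tested against a transplantable tumor grown in mice. The endpoint was survival, with treated animals benchmarked against vehicle controls as a simple ratio.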

Setting [1] is: dose: 15.0 mg/kg/injection, schedule: Q01DX Z (ip), vehicle: carboxymethylcellulose (CMC).
The mark [2] stands for this setting: dose: 30.0 mg/kg/injection, schedule: Q01DX Z (ip), vehicle: carboxymethylcellulose (CMC).
[3] abbreviates: dose: 60.0 mg/kg/injection, schedule: Q01DX Z (ip), vehicle: carboxymethylcellulose (CMC).
Setting [4] is: dose: 100.0 mg/kg/injection, schedule: Q01DX009 (ip), vehicle: Klucel (hydroxypropylcellulose) (HPC).
The mark [5] stands for this setting: dose: 100.0 mg/kg/injection, schedule: Q04DX003 (ip), vehicle: Klucel (hydroxypropylcellulose) (HPC).
[6] abbreviates: dose: 200.0 mg/kg/injection, schedule: Q04DX003 (ip), vehicle: Klucel (hydroxypropylcellulose) (HPC).
Setting [7] is: dose: 100.0 mg/kg/injection, schedule: Q01DX001 (ip), vehicle: saline.
Where [8] appears, read: dose: 200.0 mg/kg/injection, schedule: Q01DX001 (ip), vehicle: saline.
[9] abbreviates: dose: 400.0 mg/kg/injection, schedule: Q01DX001 (ip), vehicle: saline.
The mark [10] stands for this setting: dose: 100.0 mg/kg/injection, schedule: Q04DX002 (ip), vehicle: Klucel (hydroxypropylcellulose) (HPC).
Setting [11] is: dose: 200.0 mg/kg/injection, schedule: Q04DX002 (ip), vehicle: Klucel (hydroxypropylcellulose) (HPC).
The mark [12] stands for this setting: dose: 100.0 mg/kg/injection, schedule: Q04DX003 (ip), vehicle: saline with Tween-80.
Setting [13] is: dose: 400.0 mg/kg/injection, schedule: Q04DX003 (ip), vehicle: Klucel (hydroxypropylcellulose) (HPC).

`CC1=NN(c2ccccc2)/C(=N/N=C(N)N)C1CC1C(C)=NN(c2ccccc2)/C1=N/N=C(N)N` (stereo not given): the T/C runs as follows: under setting [1], 102 % of control; under setting [2], 97 % of control; under setting [3], 100 % of control and 102 % of control; (dose: 120.0 mg/kg/injection, schedule: Q01DX Z (ip), vehicle: carboxymethylcellulose (CMC)) 95 % of control and 96 % of control; (dose: 240.0 mg/kg/injection, schedule: Q01DX Z (ip), vehicle: carboxymethylcellulose (CMC)) 91 % of control.

`CN(Cc1cnc2nc(N[Si](C)(C)C)nc(N[Si](C)(C)C)c2n1)c1ccc(C(=O)NC(CCC(=O)O[Si](C)(C)C)C(=O)O[Si](C)(C)C)cc1` (stereo not given): the T/C runs as follows: (dose: 0.62 mg/kg/injection, schedule: Q01DX009 (ip), vehicle: saline) 112 % of control; (dose: 1.25 mg/kg/injection, schedule: Q01DX009 (ip), vehicle: saline with Tween-80) 164 % of control; (dose: 1.25 mg/kg/injection, schedule: Q01DX009 (ip), vehicle: saline) 119 % of control; (dose: 2.5 mg/kg/injection, schedule: Q01DX009 (ip), vehicle: saline with Tween-80) 187 % of control; (dose: 5.0 mg/kg/injection, schedule: Q01DX009 (ip), vehicle: saline with Tween-80) 152 % of control; (dose: 5.0 mg/kg/injection, schedule: Q01DX009 (ip), vehicle: saline) 183 % of control. Further, the T/C (dose: 10.0 mg/kg/injection, schedule: Q01DX009 (ip), vehicle: saline) was 204 % of control.

As to `Clc1ccc(Cl)c(NNc2cc(Cl)ccc2Cl)c1`, the T/C (dose: 25.0 mg/kg/injection, schedule: Q01DX009 (ip), vehicle: Klucel (hydroxypropylcellulose) (HPC)) was 114 % of control; the T/C (dose: 50.0 mg/kg/injection, schedule: Q01DX009 (ip), vehicle: Klucel (hydroxypropylcellulose) (HPC)) is 98 % of control; the T/C under setting [4] is 96 % of control and 92 % of control; the T/C under setting [5] was 98 % of control; the T/C under setting [6] is 101 % of control.

On to `CCOC(=O)c1c(C)[nH]oc1=O`, for which the T/C is 111 % of control (dose: 100.0 mg/kg/injection, schedule: Q04DX003 (ip), vehicle: saline); 102 % of control (dose: 200.0 mg/kg/injection, schedule: Q04DX003 (ip), vehicle: saline); 96 % of control (dose: 400.0 mg/kg/injection, schedule: Q04DX003 (ip), vehicle: saline).

For `COc1ccc(C=NC2C(O)OC(CO)C(O)C2O)cc1` (stereo not given), the T/C under setting [7] is 106 % of control, the T/C under setting [8] was 87 % of control and the T/C under setting [9] was 93 % of control.

In the case of `CN(Cc1ccccc1)N=Nc1ccccc1`, the T/C is 103 % of control (dose: 50.0 mg/kg/injection, schedule: Q04DX002 (ip), vehicle: Klucel (hydroxypropylcellulose) (HPC)); 95 % of control under setting [10]; 116 % of control under setting [11].

As to `N#CC(C#N)=C1Cc2ccccc2C1`, the T/C was 109 % of control (dose: 50.0 mg/kg/injection, schedule: Q04DX003 (ip), vehicle: saline with Tween-80) and 109 % of control under setting [12].

`NC(N)=N/N=C\c1c[nH]c2ccccc12`: the T/C is, setting by setting: under setting [1], 102 % of control; under setting [2], 103 % of control; (dose: 30.0 mg/kg/injection, schedule: Q01DX Z (oral), vehicle: carboxymethylcellulose (CMC)) 89 % of control; under setting [3], 100 % of control; (dose: 60.0 mg/kg/injection, schedule: Q01DX Z (oral), vehicle: carboxymethylcellulose (CMC)) 92 % of control; (dose: 120.0 mg/kg/injection, schedule: Q01DX Z (oral), vehicle: carboxymethylcellulose (CMC)) 96 % of control. For the same compound, the T/C (dose: 240.0 mg/kg/injection, schedule: Q01DX Z (oral), vehicle: carboxymethylcellulose (CMC)) was 96 % of control.

As to `O=C1C(SCCO)=C(SCCO)C(=O)c2[nH]cnc21`, the T/C reads like this: (dose: 5.0 mg/kg/injection, schedule: Q01DX001 (ip), vehicle: carboxymethylcellulose (CMC)) 100 % of control; (dose: 10.0 mg/kg/injection, schedule: Q01DX001 (ip), vehicle: carboxymethylcellulose (CMC)) 101 % of control; (dose: 20.0 mg/kg/injection, schedule: Q01DX001 (ip), vehicle: carboxymethylcellulose (CMC)) 100 % of control; (dose: 40.0 mg/kg/injection, schedule: Q01DX001 (ip), vehicle: carboxymethylcellulose (CMC)) 104 % of control.

As for `CCOP(=S)(OCC)N1c2ccccc2Sc2ccccc21`, the T/C was 92 % of control under setting [12] and 91 % of control (dose: 200.0 mg/kg/injection, schedule: Q04DX003 (ip), vehicle: saline with Tween-80).

As to `COc1ccc(N2C(=O)OC3(CCN(Cc4ccccc4)CC3)C2=O)cc1`, the T/C is 96 % of control (dose: 100.0 mg/kg/injection, schedule: Q01DX001 (ip), vehicle: Klucel (hydroxypropylcellulose) (HPC)); 103 % of control (dose: 200.0 mg/kg/injection, schedule: Q01DX001 (ip), vehicle: Klucel (hydroxypropylcellulose) (HPC)); 92 % of control (dose: 400.0 mg/kg/injection, schedule: Q01DX001 (ip), vehicle: Klucel (hydroxypropylcellulose) (HPC)).

As for `CCCCCCCCCCCCOC(=N)N1CCCC1`, the T/C is, setting by setting: (dose: 8.8 mg/kg/injection, schedule: Q01DX Z (ip), vehicle: saline) 96 % of control; (dose: 13.3 mg/kg/injection, schedule: Q01DX Z (ip), vehicle: saline) 102 % of control; (dose: 20.0 mg/kg/injection, schedule: Q01DX Z (ip), vehicle: saline) 100 % of control.

Take `CSCCC(NC(=O)CN)C(=O)O` (stereo not given): the T/C runs as follows: under setting [7], 96 % of control; under setting [8], 104 % of control; under setting [9], 102 % of control.

Consider `CN=C(NC)SC`, for which the T/C reads like this: under setting [7], 103 % of control; under setting [5], 100 % of control; under setting [8], 97 % of control; under setting [6], 93 % of control; under setting [9], 96 % of control; under setting [13], 100 % of control.

As to `OCCOc1ccccc1`, the T/C was 100 % of control (dose: 100.0 mg/kg/injection, schedule: Q04DX002 (ip), vehicle: saline with Tween-80); 95 % of control (dose: 200.0 mg/kg/injection, schedule: Q04DX002 (ip), vehicle: saline with Tween-80); 91 % of control (dose: 400.0 mg/kg/injection, schedule: Q04DX002 (ip), vehicle: saline with Tween-80).

As for `Nc1ccc(N)nc1`, the T/C is 98 % of control under setting [4]; 95 % of control under setting [5]; 98 % of control (dose: 200.0 mg/kg/injection, schedule: Q01DX009 (ip), vehicle: Klucel (hydroxypropylcellulose) (HPC)); 93 % of control under setting [6]; 94 % of control (dose: 400.0 mg/kg/injection, schedule: Q01DX009 (ip), vehicle: Klucel (hydroxypropylcellulose) (HPC)); 98 % of control under setting [13].

For the compound `Cc1ccc(N=Nc2ccc(C)cc2NC(=O)c2ccc(Cl)c(Cl)c2)cc1`, the T/C is, setting by setting: under setting [10], 120 % of control; under setting [11], 103 % of control; (dose: 400.0 mg/kg/injection, schedule: Q04DX002 (ip), vehicle: Klucel (hydroxypropylcellulose) (HPC)) 97 % of control.

For `Cc1nc(N)[nH]c(=O)c1CCCNc1ccc(/C=C/C2(CCl)OCCO2)cc1`, the T/C (dose: 50.0 mg/kg/injection, schedule: Q01DX Z (ip), vehicle: carboxymethylcellulose (CMC)) is 92 % of control; the T/C (dose: 200.0 mg/kg/injection, schedule: Q01DX Z (ip), vehicle: carboxymethylcellulose (CMC)) was 97 % of control; the T/C (dose: 400.0 mg/kg/injection, schedule: Q01DX Z (ip), vehicle: carboxymethylcellulose (CMC)) is 94 % of control.

Regarding `CCOC(=O)c1[nH]c2c(OCC)nc(OCC)nc2c1Br`, the T/C (dose: 50.0 mg/kg/injection, schedule: Q01DX001 (ip), vehicle: saline) was 106 % of control; the T/C under setting [7] is 112 % of control; the T/C under setting [8] was 104 % of control; the T/C under setting [9] was 95 % of control.

`BrC1(Br)C2CC/C=C\CCC21` (stereo not given): the T/C reads like this: (dose: 50.0 mg/kg/injection, schedule: Q01DX009 (ip), vehicle: saline with Tween-80) 102 % of control; (dose: 100.0 mg/kg/injection, schedule: Q01DX009 (ip), vehicle: saline with Tween-80) 94 % of control.

For `Cc1c2c(n(C)c1C(=O)N1CCCCC1)CCCC2=O`, the T/C by setting is: (dose: 75.0 mg/kg/injection, schedule: Q01DX001 (ip), vehicle: carboxymethylcellulose (CMC)) 103 % of control; (dose: 150.0 mg/kg/injection, schedule: Q01DX001 (ip), vehicle: carboxymethylcellulose (CMC)) 101 % of control; (dose: 300.0 mg/kg/injection, schedule: Q01DX001 (ip), vehicle: carboxymethylcellulose (CMC)) 98 % of control.
